Source: patent publication US6448259B1 (dated 2002)

Compound `COc1ccc(CNC(=O)c2c[nH]c3c(c2=O)CCC3)cc1` has a melting point of 240 to 241 °C.

`COc1ccc(NC(=O)c2c[nH]c3c(c2=O)CCCC3)cc1` showed a melting point of 287 to 290 °C.

`Cc1csc(NC(=O)c2c[nH]c3c(c2=O)CCCC3)n1` showed a melting point of 350 to 352 °C.

Work on `O=C(Nc1ccc(F)cc1)c1c[nH]c2c(c1=O)CCCC2` yielded a melting point of 324 to 326 °C.

With `O=C(Nc1cccnc1)c1c[nH]c2c(c1=O)CCCC2` the melting point was 308 °C (dec.).

Work on `COc1cccc(NC(=O)c2c[nH]c3c(c2=O)CCCC3)c1` yielded a melting point of 275 to 280 °C.

With `COc1ccnc(NC(=O)c2c[nH]c3c(c2=O)CCCC3)c1` the melting point was 312 °C (dec.).

For `O=C(NCc1cccc(O)c1)c1c[nH]c2c(c1=O)CCCC2`, the melting point was 133 to 136 °C.

Work on `O=C(NCc1ccccc1)c1c[nH]c2c(c1=O)CCCC2` yielded a melting point of 257 to 259 °C.

`COc1ccc(CNC(=O)c2c[nH]c3c(c2=O)CCCC3)cc1` showed a melting point of 241 to 244 °C.

In the case of `O=C(Nc1cccs1)c1c[nH]c2c(c1=O)CCCC2`, the melting point is reported as 306 °C (dec.).

In the case of `O=C(Nc1ccccc1Cl)c1c[nH]c2c(c1=O)CCCC2`, the melting point is reported as 339 to 341 °C.

Compound `O=C(Nc1ccsc1)c1c[nH]c2c(c1=O)CCCC2` has a melting point of 321 to 324 °C.

With `O=C(Nc1c(F)cccc1F)c1c[nH]c2c(c1=O)CCCC2` the melting point was 278 to 280 °C.

With `COc1ccccc1CNC(=O)c1c[nH]c2c(c1=O)CCCC2` the melting point was 217 to 219 °C.

Work on `COc1cccc(CNC(=O)c2c[nH]c3c(c2=O)CCCC3)c1` yielded a melting point of 210 to 212 °C.

`O=C(NCc1ccccc1F)c1c[nH]c2c(c1=O)CCCC2` showed a melting point of 206 to 208 °C.

Work on `O=C(Nc1ccccn1)c1c[nH]c2c(c1=O)CCC2` yielded a melting point of 294 to 295 °C.

Compound `Cc1csc(NC(=O)c2c[nH]c3c(c2=O)CCC3)n1` has a melting point of 304 to 305 °C.

In the case of `O=C(Nc1nccs1)c1c[nH]c2c(c1=O)CCC2`, the melting point is reported as 305 °C (dec.).

With `O=C(Nc1cccc(F)c1)c1c[nH]c2c(c1=O)CCC2` the melting point was 340 °C (dec.).

In the case of `O=C(Nc1ccccc1F)c1c[nH]c2c(c1=O)CCC2`, the melting point is reported as 330 °C (dec.).

With `O=C(Nc1ccc(F)cc1F)c1c[nH]c2c(c1=O)CCC2` the melting point was 328 °C (dec.).

In the case of `O=C(Nc1c(F)cccc1F)c1c[nH]c2c(c1=O)CCC2`, the melting point is reported as 297 °C (dec.).

In the case of `O=C(NCc1ccccc1)c1c[nH]c2c(c1=O)CCC2`, the melting point is reported as 149 to 150 °C.

In the case of `COc1cccc(CNC(=O)c2c[nH]c3c(c2=O)CCC3)c1`, the melting point is reported as 204 to 205 °C.

With `COc1ccccc1CNC(=O)c1c[nH]c2c(c1=O)CCC2` the melting point was 243 to 244 °C.

Work on `O=C(NCc1c(F)cccc1F)c1c[nH]c2c(c1=O)CCC2` yielded a melting point of 294 to 295 °C.

With `O=C(Nc1cccs1)c1c[nH]c2c(c1=O)CCC2` the melting point was 210 °C (dec.).

Compound `CCCCNC(=O)c1c[nH]c2c(c1=O)CCCCC2` has a melting point of 138 to 143 °C.

In the case of `O=C(Nc1ccccc1)c1c[nH]c2c(c1=O)CCC2`, the melting point is reported as 295 to 296 °C.

For `O=C(Nc1nccs1)c1c[nH]c2c(c1=O)CCCCC2`, the melting point was 301 °C (dec.).

In the case of `COc1ccc(NC(=O)c2c[nH]c3c(c2=O)CCCCC3)cc1`, the melting point is reported as 240 to 242 °C.

`O=C(NCc1ccccc1)c1c[nH]c2c(c1=O)CCCCC2` showed a melting point of 224 to 226 °C.

Compound `COc1ccc(CNC(=O)c2c[nH]c3c(c2=O)CCCCC3)cc1` has a melting point of 203 to 205 °C.

For `O=C(NCc1ccc(F)cc1)c1c[nH]c2c(c1=O)CCCCC2`, the melting point was 219 to 222 °C.

Compound `O=C(NCc1cccc(F)c1)c1c[nH]c2c(c1=O)CCCC2` has a melting point of 267 to 270 °C.

Compound `O=C(NCc1ccc(F)cc1)c1c[nH]c2c(c1=O)CCCC2` has a melting point of 278 to 280 °C.

`O=C(NCc1cccc(Cl)c1)c1c[nH]c2c(c1=O)CCCC2` gave a melting point of 247 to 249 °C.

In the case of `O=C(NCc1ccc(Cl)cc1)c1c[nH]c2c(c1=O)CCCC2`, the melting point is reported as 283 to 285 °C.

`COc1ccc(CNC(=O)c2c[nH]c3c(c2=O)CCCC3)c(F)c1` showed a melting point of 257 to 259 °C.

In the case of `O=C(Nc1ccccc1F)c1c[nH]c2c(c1=O)CCCC2`, the melting point is reported as 241 to 244 °C.

`CCOc1ccc(CNC(=O)c2c[nH]c3c(c2=O)CCCC3)cc1` gave a melting point of 241 to 243 °C.

For `Cc1ccc(CNC(=O)c2c[nH]c3c(c2=O)CCCC3)cc1`, the melting point was 270 to 273 °C.

`Cc1cccc(CNC(=O)c2c[nH]c3c(c2=O)CCCC3)c1` showed a melting point of 242 to 245 °C.

Work on `CCOc1ccc(CNC(=O)c2c[nH]c3c(c2=O)CCCC3)c(F)c1` yielded a melting point of 178 to 181 °C.

For `CC(C)Oc1ccc(CNC(=O)c2c[nH]c3c(c2=O)CCCC3)c(F)c1`, the melting point was 197 to 200 °C.

`O=C(NCc1cccs1)c1c[nH]c2c(c1=O)CCCC2` gave a melting point of 245 to 248 °C.

For `COc1ccc(NC(=O)c2c[nH]c3c(c2=O)CCC3)cc1`, the melting point was 330 to 332 °C.

In the case of `COc1cccc(NC(=O)c2c[nH]c3c(c2=O)CCC3)c1`, the melting point is reported as 320 °C (dec.).

In the case of `O=C(Nc1ccc(OCCO)cc1)c1c[nH]c2c(c1=O)CCC2`, the melting point is reported as 220 to 222 °C.

`O=C(NCc1ccc2c(c1)OCO2)c1c[nH]c2c(c1=O)CCCC2` showed a melting point of 263 to 265 °C.

In the case of `CCOc1ccc(CNC(=O)c2c[nH]c3c(c2=O)CCC3)c(F)c1`, the melting point is reported as 217 to 219 °C.

With `CC(C)Oc1ccc(CNC(=O)c2c[nH]c3c(c2=O)CCC3)c(F)c1` the melting point was 214 °C (dec.).

With `CCCOc1ccc(CNC(=O)c2c[nH]c3c(c2=O)CCC3)c(F)c1` the melting point was 209 to 211 °C.

In the case of `O=C(NCc1ccccc1F)c1c[nH]c2c(c1=O)CCC2`, the melting point is reported as 259 to 261 °C.

For `O=C(Nc1cccc(F)c1)c1c[nH]c2c(c1=O)CCCC2`, the melting point was 319 to 320 °C.

`O=C(Nc1ccccc1)c1c[nH]c2c(c1=O)CCCC2` showed a melting point of 299 to 300 °C.

With `O=C(Nc1nccs1)c1c[nH]c2c(c1=O)CCCC2` the melting point was 260 °C (dec.).
